Source: PMC12528653, “Functional characterization of key enzymes involved in the biosynthesis of distinctive flavonoids and stilbenoids in Morus notabilis” (Horticulture Research, 2025)

How the values were obtained:
Experiment in all cases: HPLC product assay, relative activity vs wild type
Format in all cases: biochemical
MnFLS [1] = biological target: T1, MnFLS (Morus notabilis, UniProt W9RQ78, K202V); details: 100 μM substrate; 2-oxoglutarate, ascorbate, FeSO4; Tris-HCl pH 7.0, 30°C, 1 h
T1 construct: gene L484_013110; full-length ORF (1008 bp, 335 aa) in pET32a, E. coli BL21(DE3), purified recombinant
T1 sequence (W9RQ78 entry or part of it K202V): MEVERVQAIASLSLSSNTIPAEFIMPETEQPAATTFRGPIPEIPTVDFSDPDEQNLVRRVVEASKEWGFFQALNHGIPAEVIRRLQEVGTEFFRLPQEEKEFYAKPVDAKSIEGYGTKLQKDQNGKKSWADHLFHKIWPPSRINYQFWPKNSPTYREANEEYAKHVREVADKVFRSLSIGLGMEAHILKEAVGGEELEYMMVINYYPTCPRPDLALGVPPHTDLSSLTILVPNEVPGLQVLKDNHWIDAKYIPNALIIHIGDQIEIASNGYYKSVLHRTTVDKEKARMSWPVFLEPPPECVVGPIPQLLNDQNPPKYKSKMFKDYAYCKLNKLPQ

MnFLS [2] = biological target: T2, MnFLS (Morus notabilis, UniProt W9RQ78, T117I); details: 100 μM substrate; 2-oxoglutarate, ascorbate, FeSO4; Tris-HCl pH 7.0, 30°C, 1 h
T2 construct: gene L484_013110; full-length ORF (1008 bp, 335 aa) in pET32a, E. coli BL21(DE3), purified recombinant
T2 sequence (W9RQ78 entry or part of it T117I): as the sequence (W9RQ78 entry or part of it K202V) above, with T117I, V202K counted along it

MnFLS [3] = biological target: T3, MnFLS (Morus notabilis, UniProt W9RQ78, L224M); details: 100 μM substrate; 2-oxoglutarate, ascorbate, FeSO4; Tris-HCl pH 7.0, 30°C, 1 h; wild-type residue also printed as Met224
T3 construct: gene L484_013110; full-length ORF (1008 bp, 335 aa) in pET32a, E. coli BL21(DE3), purified recombinant
T3 sequence (W9RQ78 entry or part of it L224M): as the sequence (W9RQ78 entry or part of it K202V) above, with V202K, L224M counted along it

MnFLS [4] = biological target: T4, MnFLS (Morus notabilis, UniProt W9RQ78, T117S); details: 100 μM substrate; 2-oxoglutarate, ascorbate, FeSO4; Tris-HCl pH 7.0, 30°C, 1 h
T4 construct: gene L484_013110; full-length ORF (1008 bp, 335 aa) in pET32a, E. coli BL21(DE3), purified recombinant
T4 sequence (W9RQ78 entry or part of it T117S): as the sequence (W9RQ78 entry or part of it K202V) above, with T117S, V202K counted along it

Row | SMILES | HPLC product assay, relative activity vs wild type (MnFLS [1]) | HPLC product assay, relative activity vs wild type (MnFLS [2]) | HPLC product assay, relative activity vs wild type (MnFLS [3]) | HPLC product assay, relative activity vs wild type (MnFLS [4])
1 | O=C1c2c(O)cc(O)cc2O[C@H](c2ccc(O)cc2)[C@H]1O [dihydrokaempferol] | the mutant K202V suffered an almost complete loss of enzymatic function | replacing the Thr117 with Ile led to reduced activity | The variant L224M facilitated the conversion of dihydrokaempferol to kaempferol | T117S resulted in significant enhancement of activity for both naringenin and dihydrokaempferol as substrates
2 | O=C1C[C@@H](c2ccc(O)cc2)Oc2cc(O)cc(O)c21 [naringenin] | the mutant K202V suffered an almost complete loss of enzymatic function | replacing the Thr117 with Ile led to reduced activity | promoted an increased synthesis of dihydrokaempferol and kaempferol from naringenin | T117S resulted in significant enhancement of activity for both naringenin and dihydrokaempferol as substrates
